The results in this text go back to patent US20230085307A1, “PYRIDAZINONE COMPOUND AND HERBICIDE” (NISSAN CHEMICAL CORPORATION, priority 2019, published 2023).

Holding throughout (details): foliage application, 320 g/ha
For one assay, the system named is barnyard grass. Nature of the assay: Test Example 5: herbicidal effect by foliage application, plastic box (Table 20, symbol H). Type of assay: in vivo, barnyard grass (Echinochloa crus-galli). From the text:
(§1) [Test Example 5] Herbicidal Effect Test by Foliage Application
(§2) Sterilized diluvial soil was placed in a plastic box having a length of 21 cm, a width of 13 cm, and a depth of 7 cm. The seeds of each of southern crabgrass, green foxtail, barnyard grass, wild oat, blackgrass, Italian ryegrass, windgrass, velvetleaf, redroot pigweed, lambsquarters, chickweed, false cleavers, persian speedwell, corn, soybean, rice, wheat, beet, and rapeseed were sowed in a spot-like manner and covered with the soil having a thickness of about 1.5 cm. Thereafter, the plants were grown in a greenhouse at 25° C. to 30° C. After 14-day growth of the plants, the emulsion agent of the compound of the present invention prepared according to Formulation Example 2 was diluted with water so as to achieve a predetermined herbicide amount, and the diluted emulsion agent was uniformly applied to a foliage part with a small-sized spray. Three weeks after the herbicide application, the effect of the herbicide on each plant was evaluated according to the criteria of Test Example 1.

For a further assay, the system named is southern crabgrass. Nature of the assay: Test Example 5: herbicidal effect by foliage application, plastic box (Table 20, symbol F). In kind it is in vivo, southern crabgrass (Digitaria ciliaris).
Text: as §1, §2

A further assay concerns green foxtail. Nature of the assay: Test Example 5: herbicidal effect by foliage application, plastic box (Table 20, symbol G). Type of assay: in vivo, green foxtail (Setaria viridis).
Text: as §1, §2

Another assay deals with Italian ryegrass. Nature of the assay: Test Example 5: herbicidal effect by foliage application, plastic box (Table 20, symbol K). In kind it is in vivo, Italian ryegrass (Lolium multiflorum).
Text: as §1, §2

Another assay deals with blackgrass. Nature of the assay: Test Example 5: herbicidal effect by foliage application, plastic box (Table 20, symbol J). Type of assay: in vivo, blackgrass (Alopecurus myosuroides).
Text: as §1, §2

In the next assay the test system is windgrass. Nature of the assay: Test Example 5: herbicidal effect by foliage application, plastic box (Table 20, symbol L). In kind it is in vivo, windgrass (Apera spica-venti).
Text: as §1, §2

Another assay concerns persian speedwell. Nature of the assay: Test Example 5: herbicidal effect by foliage application, plastic box (Table 20, symbol R). Type of assay: in vivo, Persian speedwell (Veronica persica).
Text: as §1, §2

The next assay relates to lambsquarters. Nature of the assay: Test Example 5: herbicidal effect by foliage application, plastic box (Table 20, symbol O). Type of assay: in vivo, lambsquarters (Chenopodium album).
Text: as §1, §2

Another assay relates to velvetleaf. Nature of the assay: Test Example 5: herbicidal effect by foliage application, plastic box (Table 20, symbol M). In kind it is in vivo, velvetleaf (Abutilon theophrasti).
Text: as §1, §2

In another assay the test system is wild oat. Nature of the assay: Test Example 5: herbicidal effect by foliage application, plastic box (Table 20, symbol I). In kind it is in vivo, wild oat (Avena fatua).
Text: as §1, §2

As for `CCCC(=O)Oc1c(OC)nn(C)c(=O)c1-c1c(-c2cc3ccccc3o2)sc2ccccc12` [1-195], the “effect on barnyard grass (H)” value in the assay with barnyard grass (3 weeks after application) is on record as 0 (Herbicidal rate of 5% or less (almost no effect)). The “effect on southern crabgrass (F)” value with southern crabgrass (3 weeks after application) is recorded as 0 (Herbicidal rate of 5% or less (almost no effect)). For the same molecule, the “effect on green foxtail (G)” value with green foxtail (3 weeks after application) is recorded as 0 (Herbicidal rate of 5% or less (almost no effect)). Moreover, the “effect on Italian ryegrass (K)” value with Italian ryegrass (3 weeks after application) is recorded as 0 (Herbicidal rate of 5% or less (almost no effect)). Also, the “effect on blackgrass (J)” value in the assay with blackgrass (3 weeks after application) is recorded as 0 (Herbicidal rate of 5% or less (almost no effect)). For the same molecule, in the assay on windgrass (3 weeks after application), the “effect on windgrass (L)” value is listed as 0 (Herbicidal rate of 5% or less (almost no effect)). Moreover, the “effect on persian speedwell (R)” value in the assay with persian speedwell (3 weeks after application) was 0 (Herbicidal rate of 5% or less (almost no effect)). Besides, the “effect on lambsquarters (O)” value with lambsquarters (3 weeks after application) is 0 (Herbicidal rate of 5% or less (almost no effect)). Moreover, in the assay with velvetleaf (3 weeks after application), the “effect on velvetleaf (M)” value is 0 (Herbicidal rate of 5% or less (almost no effect)). Further, in the assay with wild oat (3 weeks after application), the “effect on wild oat (I)” value is on record as 0 (Herbicidal rate of 5% or less (almost no effect)).
For the molecule `COc1ccccc1-c1oc2ccc(Cl)cc2c1-c1c(O)c(C)nn(C)c1=O` [9-001], the “herbicidal effect on barnyard grass (H)” value in the assay with barnyard grass (three weeks after application) is 0 (Herbicidal rate of 5% or less (almost no effect)). Besides, in the assay on southern crabgrass (three weeks after application), the “herbicidal effect on southern crabgrass (F)” value is given as 0 (Herbicidal rate of 5% or less (almost no effect)). In the assay on green foxtail (three weeks after application), the “herbicidal effect on green foxtail (G)” value is listed as 0 (Herbicidal rate of 5% or less (almost no effect)). Also, the “herbicidal effect on Italian ryegrass (K)” value with Italian ryegrass (three weeks after application) was 0 (Herbicidal rate of 5% or less (almost no effect)). For the same molecule, the “herbicidal effect on blackgrass (J)” value in the assay with blackgrass (three weeks after application) is given as 0 (Herbicidal rate of 5% or less (almost no effect)). The “herbicidal effect on windgrass (L)” value with windgrass (three weeks after application) was 0 (Herbicidal rate of 5% or less (almost no effect)). For the same molecule, the “herbicidal effect on persian speedwell (R)” value with persian speedwell (three weeks after application) is 0 (Herbicidal rate of 5% or less (almost no effect)). The “herbicidal effect on lambsquarters (O)” value in the assay with lambsquarters (three weeks after application) is 3 (Herbicidal rate of 40% or more and less than 70%). Moreover, the “herbicidal effect on velvetleaf (M)” value in the assay on velvetleaf (three weeks after application) was 2 (Herbicidal rate of 20% or more and less than 40%). Besides, the “herbicidal effect on wild oat (I)” value with wild oat (three weeks after application) is listed as 0 (Herbicidal rate of 5% or less (almost no effect)).
